Measured values from PubChem BioAssay (NCI).
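Cells were grown in 96-well plates and exposed to each compound for 48 hours at five concentrations; endpoints were interpolated linearly between bracketing concentrations, or set to the highest concentration if not reached. TGI marks complete inhibition of growth.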

Experiments:
Assay in all cases: growth of human tumour cells (NCI), 48 h
A498 renal = tested on: A498 renal
COLO 205 colon = tested on: COLO 205 colon
HL-60(TB) leukemia = tested on: HL-60(TB) leukemia
LOX IMVI melanoma = tested on: LOX IMVI melanoma
M14 melanoma = tested on: M14 melanoma
MALME-3M melanoma = tested on: MALME-3M melanoma
OVCAR-8 ovarian = tested on: OVCAR-8 ovarian
SK-OV-3 ovarian = tested on: SK-OV-3 ovarian
UACC-257 melanoma = tested on: UACC-257 melanoma
UO-31 renal = tested on: UO-31 renal

SMILES	TGI (A498 renal)	TGI (COLO 205 colon)	TGI (HL-60(TB) leukemia)	TGI (LOX IMVI melanoma)	TGI (M14 melanoma)	TGI (MALME-3M melanoma)	TGI (OVCAR-8 ovarian)	TGI (SK-OV-3 ovarian)	TGI (UACC-257 melanoma)	TGI (UO-31 renal)
N#Cc1c(C#N)c(-c2ccccc2)n(/N=C\c2ccccc2)c1N	77.4 µM	72 µM	> 100 µM	32.8 µM	> 100 µM	> 100 µM	> 100 µM	70.2 µM	70.3 µM	81.8 µM
O=C(NC/C=C/Br)NC1CCNc2ccccc21 (stereo not given)	70.4 µM	37.7 µM	> 100 µM	56.8 µM	34.5 µM	77.9 µM	> 100 µM	> 100 µM	54.9 µM	62.6 µM
CC(C)CC(NC(=O)C(COc1ccc([N+](=O)[O-])cc1)Cc1ccccc1)C(=O)Nc1ccccc1 (stereo not given)	72.2 µM	> 100 µM	> 100 µM	> 100 µM	60.8 µM	18 µM	27.4 µM	28.5 µM	> 100 µM	24.5 µM
COc1cc2c(cc1O)CC[C@@H]1C2CC[C@@]2(C)C1CC[C@@H]2O (stereo not given in full)	50.4 µM	81.3 µM	8.18 µM	> 100 µM	> 100 µM	> 100 µM	39.4 µM	> 100 µM	> 100 µM	> 94.7 µM
CC1(C)CC2(C)OC(=N)C1(C#N)C2(C#N)C#N (stereo not given)	28.7 µM	14.9 µM	15.6 µM	3.09 µM	23.8 µM	31.4 µM	46.8 µM	> 100 µM	19.9 µM	16.2 µM
COc1ccc(N2C(=O)C(N3C(=O)C=CC3=O)C2C=O)cc1 (stereo not given)	> 100 µM	> 100 µM	> 100 µM	> 100 µM	> 100 µM	> 100 µM	> 100 µM	> 100 µM	> 100 µM	> 100 µM
O=C1OC(c2ccccc2)=N/C1=C/N1CCCC1C(=O)O (stereo not given)	> 100 µM	> 100 µM	> 100 µM	> 100 µM	> 100 µM	> 100 µM	> 100 µM	> 100 µM	> 100 µM	> 100 µM
C=CCn1c(=O)c2ccccc2[n+]2c(-c3cccc([N+](=O)[O-])c3)csc12	> 100 µM	98.6 µM	58.2 µM	> 100 µM	> 100 µM	> 100 µM	> 100 µM	> 100 µM	> 100 µM	> 100 µM
C/C(=C\CNc1nc(Cl)nc2nc[nH]c12)CO	> 100 µM	> 100 µM	> 100 µM	> 100 µM	> 100 µM	> 100 µM	> 100 µM	> 100 µM	> 100 µM	> 100 µM
CCOC(=O)CCC(C(=O)OCC)n1nnc2cc(Nc3c(C)[n+]([O-])c4ccc(Cl)cc4[n+]3[O-])ccc21 (stereo not given)	> 100 µM	> 100 µM	> 100 µM	> 100 µM	> 100 µM	> 100 µM	> 100 µM	> 100 µM	> 100 µM	> 100 µM
Cc1cccc2c1C(=O)[C@@](C)([C@]1(C)Nc3cccc(C)c3C1=O)N2	> 100 µM	> 100 µM	7.9 µM	> 100 µM	> 100 µM	> 100 µM	> 100 µM	> 100 µM	> 100 µM	> 100 µM
N#Cc1c(-c2ccc(Cl)cc2)cc(-c2nc3ccccc3[nH]2)nc1N	22.6 µM	20.1 µM	58.7 µM	28 µM	16.2 µM	32.5 µM	49.5 µM	77.4 µM	18.5 µM	21.9 µM
Nc1ccc(-c2nc3ccccc3s2)cc1	65 µM	45.2 µM	61.6 µM	33 µM	34 µM	45 µM	17.7 µM	> 100 µM	49.7 µM	28.9 µM
CC1(O)C(=O)OC2CC([C@]3(O)CCC4[C@@H]5C[C@H]6O[C@]67[C@@H](O)C=CC(=O)[C@]7(C)C5CC[C@@]43C)C1(C)C2 (stereo not given in full)	> 100 µM	20.7 µM	19.9 µM	15.7 µM	26.4 µM	16.6 µM	> 100 µM	> 100 µM	26.6 µM	> 85.3 µM
Cc1nnc2sc(-c3ccc([N+](=O)[O-])o3)nn12	> 100 µM	27.5 µM	8.58 µM	16.1 µM	21.9 µM	14.3 µM	27.5 µM	32.7 µM	26.8 µM	32.6 µM
CSc1ccccc1P(CCP(c1ccccc1SC)c1ccccc1SC)c1ccccc1SC	> 81.7 µM	> 53 µM	16.3 µM	> 100 µM	> 100 µM	> 100 µM	> 100 µM	> 55.4 µM	> 89.5 µM	> 90.3 µM
COc1cc(C2(C)SCCCS2)c(I)c(OC)c1OC	> 100 µM	> 100 µM	> 100 µM	> 100 µM	> 100 µM	> 100 µM	> 100 µM	> 100 µM	> 100 µM	> 100 µM
